Values quoted from earlier work in patent US12090150B2, “Deuterated analogs of elacridar” (priority 2018, dated 2024).

Key:
[1] = test system: P-gp/BCRP pumps located in the GI tract; conditions: cancer patients
[2] = test system: P-gp and BCRP at the blood brain barrier; conditions: rodents; morphine, amprenavir, imatinib, dasatinib, gefitinib, sorafenib, sunitinib

## COc1cc2c(cc1OC)CN(CCc1ccc(NC(=O)c3cccc4c(=O)c5cccc(OC)c5[nH]c34)cc1)CC2 [elacridar, 9,10-dihydro-5-methoxy-9-oxo-N-[4-[2-(1,2,3,4-tetrahydro-6,7-dimethoxy-2-isoquinolinyl)ethyl]phenyl]-4-acridine-carboxamide]
[1]
  oral absorption of coadministered paclitaxel (P-gp substrate) and topotecan (BCRP substrate): improved
[2]
  increase of drug levels in the brain of coadministered pump substrates: some success
other
  solubility in water: practically insoluble in water
